Reference: patent US20040234555A1, “Swine growth promoters and method of promoting swine growth” (priority 2001, published 2004)

Key:
piglets = assay: Growth of piglets given feed with the additive from the 14th day after birth (Example 2); format: in vivo, pig
Procedure: Using piglets born during a period of from October through November in 2000, feeding was carried out on the 14th day after their birth. […] In this case, the test was carried out using 10 head in each plot, and the average values were calculated.

Large Yorkshire piglets = assay: Growth and blood examination of piglets after a single administration on the third day after birth (Example 1)
Procedure: Thereafter, usual management was carried out, feeding was started on the 14th day after birth, and body weights were measured and blood samples were collected on the 21st day after birth to carry out inspections in accordance with usual way. Also, body weights were measured at the time of shipping after about 6 months, and the number of days reaching a shipping body weight criterion of 110 kg (required days for 110 kg) was calculated. The tests were carried out using 12 animals in each plot, and the values were calculated as average values by excluding pigs which came off the test due to a disease and the like.
DG (daily gain; kg/day)=shipping body weight (kg)÷raised days (day)
Required days for 110 kg (day)=110 (kg)÷DG (kg/day)

[1] = 21st day after birth, treatment on 3rd day after birth

Structure (SMILES): Cl.NCC(=O)CCC(=O)O [ALA, 5-aminolevulinic acid hydrochloride]
- Required days for 110 kg (piglets; 10 mg 5-aminolevulinic acid hydrochloride per 1 kg feed, with or without 10 mg ferric ammonium citrate per 1 kg feed, 10 head per plot): 172
- Growth (in words) (piglets; feed additive from 14th day after birth): markedly enhanced
- Body weight: relative value to 100 at the commencement of the test on the 3rd day after birth (Large Yorkshire piglets; 21st day after birth): 233%
- B12: vitamin B12 concentration in serum (Large Yorkshire piglets; [1]): 240 pg/mL
- Fe: serum iron concentration in serum (Large Yorkshire piglets; [1]): 44 µg/dL
- Hb: hemoglobin concentration in whole blood sample (Large Yorkshire piglets; [1]): 8.5 g/dL
- Ht: blood cell volume ratio in whole blood sample (Large Yorkshire piglets; [1]): 30.5%
- TP: total serum protein concentration in serum (Large Yorkshire piglets; [1]): 5.8 g/dL
- Required days for 110 kg (number of days reaching shipping body weight criterion of 110 kg) (Large Yorkshire piglets; calculated from shipping body weight after about 6 months, 110 kg ÷ daily gain): 183 days
- Frequency of disease onset (Large Yorkshire piglets; examination about 6 months after birth, 12 animals per plot): 0
- Pigs which came off the test system due to a disease (Large Yorkshire piglets; in and after the 21st day): diseases were not found
- Pigs which came off the test plots due to a disease and the like (Large Yorkshire piglets; until the 21st day after birth): not found
